Experimental data taken from US20250145640A1, “2,2-DIFLUORO-5H-[1,3]DIOXOLO[4,5-F]ISOINDOL-7-ONE DERIVATIVES AS PESTICIDES” (SYNGENTA CROP PROTECTION AG, priority 2021, published 2025).

Columns and labels:
Format in all cases: in vivo
[1] = system: Euschistus heros (Neotropical Brown Stink Bug); assay: Example B3: Activity against Euschistus heros, sprayed soybean leaves on agar; details: 120 h, application rate 200 ppm, N2 nymphs, assessed 5 days after infestation, read-out: effect in at least one of the two categories (mortality or growth inhibition)
Method: Example B3: Activity Against Euschistus heros (Neotropical Brown Stink Bug)
Soybean leaves on agar in 24-well microtiter plates were sprayed with aqueous test solutions prepared from 10′000 ppm DMSO stock solutions. After drying the leaves were infested with N2 nymphs. The samples were assessed for mortality and growth inhibition in comparison to untreated samples 5 days after infestation.

[2] = system: Diabrotica Balteata (Corn Root Worm); assay: Example B2: Activity against Diabrotica balteata, sprayed maize sprouts on agar; details: 96 h, application rate 200 ppm, L2 larvae, assessed 4 days after infestation, read-out: effect in at least one of the two categories (mortality or growth inhibition)
Method: Example B2: Activity Against Diabrotica Balteata (Corn Root Worm)
Maize sprouts placed onto an agar layer in 24-well microtiter plates were treated with aqueous test solutions prepared from 10′000 ppm DMSO stock solutions by spraying. After drying, the plates were infested with L2 larvae (6 to 10 per well). The samples were assessed for mortality and growth inhibition in comparison to untreated samples 4 days after infestation.

[3] = system: Plutella xylostella (Diamond Back Moth); assay: Example B5: Activity against Plutella xylostella, artificial diet in 24-well microtiter plates; details: 192 h, application rate 200 ppm, eggs, assessed 8 days after infestation, read-out: effect in at least one of the two categories (mortality or growth inhibition)
Method: Example B5: Activity Against Plutella xylostella (Diamond Back Moth)
24-well microtiter plates with artificial diet were treated with aqueous test solutions prepared from 10′000 ppm DMSO stock solutions by pipetting. After drying, Plutella eggs were pipetted through a plastic stencil onto a gel blotting paper and the plate was closed with it. The samples were assessed for mortality and growth inhibition in comparison to untreated samples 8 days after infestation.

[4] = system: Myzus persicae (Green peach aphid); assay: Example B4: Activity against Myzus persicae, feeding/contact activity on sunflower leaf discs; details: foliar, 144 h, application rate 200 ppm, aphid population of mixed ages, assessed 6 days after infestation
Method: Example B4: Activity against Myzus persicae (Green peach aphid) Feeding/Contact activity Sunflower leaf discs were placed onto agar in a 24-well microtiter plate and sprayed with aqueous test solutions prepared from 10′000 ppm DMSO stock solutions. After drying, the leaf discs were infested with an aphid population of mixed ages. The samples were assessed for mortality 6 days after infestation.

[5] = system: Spodoptera littoralis (Egyptian Cotton Leaf Worm); assay: Example B6: Activity against Spodoptera littoralis, sprayed cotton leaf discs on agar; details: foliar, 72 h, application rate 200 ppm, L1 larvae, assessed 3 days after infestation, read-out: control (at least one of mortality, anti-feedant effect, growth inhibition)
Method: Example B6: Activity Against Spodoptera littoralis (Egyptian Cotton Leaf Worm)
Cotton leaf discs were placed onto agar in 24-well microtiter plates and sprayed with aqueous test solutions prepared from 10′000 ppm DMSO stock solutions. After drying the leaf discs were infested with five L1 larvae. The samples were assessed for mortality, anti-feeding effect, and growth inhibition in comparison to untreated samples 3 days after infestation. Control of Spodoptera littoralis by a test sample is given when at least one of the categories mortality, anti-feedant effect, and growth inhibition is higher than the untreated sample.

[6] = system: Chilo suppressalis (Striped Rice Stemborer); assay: Example B1: Activity against Chilo suppressalis, artificial diet in 24-well microtiter plates; details: 144 h, application rate 200 ppm, L2 larvae, assessed 6 days after infestation, read-out: control (at least one of mortality, anti-feedant effect, growth inhibition)
Method: Example B1: Activity Against Chilo suppressalis (Striped Rice Stemborer)
24-well microtiter plates with artificial diet were treated with aqueous test solutions prepared from 10′000 ppm DMSO stock solutions by pipetting. After drying, the plates were infested with L2 larvae (6-8 per well). The samples were assessed for mortality, anti-feeding effect, and growth inhibition in comparison to untreated samples 6 days after infestation. Control of Chilo suppressalis by a test sample is given when at least one of the categories mortality, anti-feedant effect, and growth inhibition is higher than the untreated sample.

CCS(=O)(=O)c1cc2ccccc2nc1N1Cc2cc3c(cc2C1=O)OC(F)(F)O3 [P2, 6-(3-ethylsulfonyl-2-quinolyl)-2,2-difluoro-5H-[1,3]dioxolo[4,5-f]isoindol-7-one]
≥ 80%: percent effect (mortality or growth inhibition) at 200 ppm [1] | percent effect (mortality or growth inhibition) at 200 ppm [2] | percent effect (mortality or growth inhibition) at 200 ppm [3] | mortality at 200 ppm [4] | percent control (mortality, anti-feedant effect or growth inhibition) at 200 ppm [5]

CCS(=O)(=O)c1c(N2Cc3cc4c(cc3C2=O)OC(F)(F)O4)nn2cc(C3CC3)ccc12 [P4, 6-(6-cyclopropyl-3-ethylsulfonyl-pyrazolo[1,5-a]pyridin-2-yl)-2,2-difluoro-5H-[1,3]dioxolo[4,5-f]isoindol-7-one]
≥ 80%: percent effect (mortality or growth inhibition) at 200 ppm [1] | percent effect (mortality or growth inhibition) at 200 ppm [2] | percent effect (mortality or growth inhibition) at 200 ppm [3] | control (mortality, anti-feedant effect or growth inhibition) at 200 ppm [6] | mortality at 200 ppm [4] | percent control (mortality, anti-feedant effect or growth inhibition) at 200 ppm [5]

CCS(=O)(=O)c1c(N2Cc3cc4c(cc3C2=O)OC(F)(F)O4)nc2ccc(Cl)cn12 [P11, 6-(6-chloro-3-ethylsulfonyl-imidazo[1,2-a]pyridin-2-yl)-2,2-difluoro-5H-[1,3]dioxolo[4,5-f]isoindol-7-one]
≥ 80%: percent effect (mortality or growth inhibition) at 200 ppm [1] | percent effect (mortality or growth inhibition) at 200 ppm [2] | percent effect (mortality or growth inhibition) at 200 ppm [3] | control (mortality, anti-feedant effect or growth inhibition) at 200 ppm [6] | percent control (mortality, anti-feedant effect or growth inhibition) at 200 ppm [5]

CCS(=O)(=O)c1c(N2Cc3cc4c(cc3C2=O)OC(F)(F)O4)nn2ccc(Cl)cc12 [P15, 6-(5-chloro-3-ethylsulfonyl-pyrazolo[1,5-a]pyridin-2-yl)-2,2-difluoro-5H-[1,3]dioxolo[4,5-f]isoindol-7-one]
≥ 80%: percent effect (mortality or growth inhibition) at 200 ppm [1] | percent effect (mortality or growth inhibition) at 200 ppm [2] | percent effect (mortality or growth inhibition) at 200 ppm [3] | control (mortality, anti-feedant effect or growth inhibition) at 200 ppm [6] | percent control (mortality, anti-feedant effect or growth inhibition) at 200 ppm [5]
